Where a SMILES comes first, the peptide text is derived from it. Bridges are numbered along the chain shown (N, C = ends). [ ]: non-standard residue; d: D form. The star is where a group is joined. hPhe(3-Cl-4-CF3) = N[C@@H](CCc1ccc(C(F)(F)F)c(Cl)c1)C(=O)O; NPrPhe(4-CF3) = CCCN[C@@H](Cc1ccc(C(F)(F)F)cc1)C(=O)O; NMeAbu(4,4,4-F3) = CN[C@@H](CC(F)(F)F)C(=O)O; NMeGly(cPent) = CN[C@H](C(=O)O)C1CCCC1; Pro(4,4-F2) = O=C(O)[C@@H]1CC(F)(F)CN1; Ac4c(3,3-Me2) = CC1(C)CC(N)(C(=O)O)C1; NMeD = CN[C@@H](CC(=O)O)C(=O)O; NMeL = CN[C@@H](CC(C)C)C(=O)O; Morpholide = C1CN(*)CCO1; Ac5c = NC1(C(=O)O)CCCC1; Sar = CNCC(=O)O
Key:
HRAS wild-type protein = HRAS wild-type protein (Homo sapiens, UniProt P01112); experiment: Binding to HRAS by surface plasmon resonance (SPR), KD and KD ratio to KRAS
Chain of HRAS wild-type protein (P01112 whole entry): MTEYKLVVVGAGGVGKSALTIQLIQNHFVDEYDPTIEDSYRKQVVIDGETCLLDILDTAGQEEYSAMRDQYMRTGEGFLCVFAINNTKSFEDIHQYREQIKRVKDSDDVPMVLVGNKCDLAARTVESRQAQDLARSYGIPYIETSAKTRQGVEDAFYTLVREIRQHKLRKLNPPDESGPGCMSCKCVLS
In short: (§1)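 Compound binding is evaluated by SPR single-cycle kinetics, with concentrations added intermittently from low to high for 75 s each. Target surfaces carry GDP-loaded biotinylated Avi-RAS at about 100–300 RU, regenerated after each cycle; temperature 30°C. A 1:1 binding model gives KD.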

[1] = target: GDP-bound NRAS wild-type protein (Homo sapiens, UniProt P01111); experiment: Binding to NRAS by surface plasmon resonance (SPR), KD and KD ratio to KRAS
Chain of GDP-bound NRAS wild-type protein (P01111 whole entry): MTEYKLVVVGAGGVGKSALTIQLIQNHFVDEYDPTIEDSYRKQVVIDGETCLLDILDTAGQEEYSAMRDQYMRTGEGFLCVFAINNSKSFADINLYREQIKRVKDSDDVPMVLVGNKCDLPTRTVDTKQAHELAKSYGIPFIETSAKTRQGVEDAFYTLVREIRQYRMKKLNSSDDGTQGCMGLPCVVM
In short: as §1

[2] = system: human lung cancer strain NCI-H441; assay type: cell-based
In short: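 Proliferation was scored by […] measured after the reagent was added to cultures kept at 37°C in 5% carbon dioxide.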

[3] = ratio of the KD value with respect to HRAS wild-type protein to the KD value with respect to KRAS
[4] = ratio of the KD value with respect to GDP-bound NRAS wild-type protein to the KD value with respect to KRAS
[5] = ratio of KD for HRAS wild-type protein to KD for KRAS
[6] = ratio of KD for GDP-bound NRAS wild-type protein to KD for KRAS

Row | SMILES | IC50 [2] [nM] | HRAS /KRAS (HRAS wild-type protein; [3]) | NRAS /KRAS [1, 4] | HRAS /KRAS (HRAS wild-type protein; [5]) | NRAS /KRAS [1, 6] | HRAS /KRAS (HRAS wild-type protein; ratio of KD value for HRAS wild-type protein to KD value for KRAS (SPR)) | NRAS /KRAS ([1]; ratio of KD value for GDP-bound NRAS wild-type protein to KD value for KRAS (SPR))
1 | CCO[C@@H]1C[C@H]2C(=O)NC3(CCCC3)C(=O)N(C)[C@@H](C3CCCC3)C(=O)N(C)[C@H](C(=O)N(C)C)CC(=O)N(C)[C@@H](C)C(=O)N[C@@H]([C@@H](C)CC)C(=O)N(C)CC(=O)N(C)[C@H]3CCCCN(C3=O)[C@@H](Cc3ccc(C(F)(F)F)cc3)C(=O)N(C)CC(=O)N[C@@H](CCc3cc(F)c(C(F)(F)F)c(F)c3)C(=O)N2C1 [PP0586] | 5.3 | B (a compound having 3 or more and less than 10 is denoted as B) | C (A compound having a KD ratio of 0.1 or more and less than 3 is denoted as C) | – | – | – | –
2 | CCO[C@@H]1C[C@H]2C(=O)NC3(CCC3)C(=O)N(C)[C@@H](CC(C)C)C(=O)N(C)[C@H](C(=O)N(C)C)CC(=O)N(C)[C@@H](CC)C(=O)N[C@@H]([C@@H](C)CC)C(=O)N(C)CC(=O)N(C)[C@H]3C/C=C\CCN(C3=O)[C@@H](Cc3ccc(C(F)(F)F)cc3)C(=O)N(C)CC(=O)N[C@@H](CCc3cc(F)c(C(F)(F)F)c(F)c3)C(=O)N2C1 [PP1089] | 57.3 | – | – | A (a compound having 10 or more and less than 20 is denoted as A) | AA (a compound having 20 or more is denoted as AA) | – | –
3 | CCCN1C(=O)CN(C)C(=O)CN(C)C(=O)[C@H]([C@@H](C)CC)NC(=O)[C@H](CC(F)(F)F)N(C)C(=O)C[C@@H](C(=O)N2CCOCC2)N(C)C(=O)[C@H](C2CCCC2)N(C)C(=O)C2(CCCC2)NC(=O)[C@@H]2CCCN2C(=O)[C@H](CCc2ccc(C(F)(F)F)c(Cl)c2)NC(=O)CN(C)C(=O)[C@@H]1Cc1ccc(C(F)(F)F)cc1 [PP0187] ([NMeAbu(4,4,4-F3)]I[Sar][Sar][NPrPhe(4-CF3)][Sar][hPhe(3-Cl-4-CF3)]P[Ac5c][NMeGly(cPent)][NMeD]-Morpholide; lactam N-11) | 3 | – | – | C (A compound having a KD ratio of 0.1 or more and less than 3 is denoted as C) | B (a compound having 3 or more and less than 10 is denoted as B) | – | –
4 | CCCN1C(=O)CN(C)C(=O)CN(C)C(=O)[C@H]([C@@H](C)CC)NC(=O)[C@H](CC(C)C)N(C)C(=O)C[C@@H](C(=O)N2CCOCC2)NC(=O)[C@H](C2CCCC2)N(C)C(=O)C2(CCCC2)NC(=O)[C@@H]2CC(F)(F)CN2C(=O)[C@H](CCc2ccc(C(F)(F)F)c(Cl)c2)NC(=O)CN(C)C(=O)[C@@H]1Cc1ccc(C(F)(F)F)cc1 [PP0321] ([NMeL]I[Sar][Sar][NPrPhe(4-CF3)][Sar][hPhe(3-Cl-4-CF3)][Pro(4,4-F2)][Ac5c][NMeGly(cPent)]D-Morpholide; lactam N-11) | 55.7 | – | – | B (a compound having 3 or more and less than 10 is denoted as B) | B (a compound having 3 or more and less than 10 is denoted as B) | – | –

More lines, main results first:

Row | IC50 [2] [nM] | SMILES | HRAS /KRAS (HRAS wild-type protein; [3]) | NRAS /KRAS [1, 4] | HRAS /KRAS (HRAS wild-type protein; [5]) | NRAS /KRAS [1, 6] | HRAS /KRAS (HRAS wild-type protein; ratio of KD value for HRAS wild-type protein to KD value for KRAS (SPR)) | NRAS /KRAS ([1]; ratio of KD value for GDP-bound NRAS wild-type protein to KD value for KRAS (SPR))
5 | 10.3 | CCCN1C(=O)CN(C)C(=O)CN(C)C(=O)[C@H]([C@@H](C)OCC)NC(=O)[C@H](CC(C)C)N(C)C(=O)C[C@@H](C(=O)N2CCOCC2)N(C)C(=O)[C@H](C2CCCC2)N(C)C(=O)C2(CC(C)(C)C2)NC(=O)[C@@H]2CCCN2C(=O)[C@H](CCc2ccc(C(F)(F)F)c(Cl)c2)NC(=O)CN(C)C(=O)[C@@H]1Cc1ccc(C(F)(F)F)cc1 [PP1964] ([NMeL]T(Et)[Sar][Sar][NPrPhe(4-CF3)][Sar][hPhe(3-Cl-4-CF3)]P[Ac4c(3,3-Me2)][NMeGly(cPent)][NMeD]-Morpholide; lactam N-11) | B (a compound having 3 or more and less than 10 is denoted as B) | B (a compound having 3 or more and less than 10 is denoted as B) | – | – | – | –
6 | 36.1 | CCO[C@@H]1C[C@H]2C(=O)NC3(CC(C)(C)C3)C(=O)N(C)[C@@H](C(CC)CC)C(=O)N(C)[C@H](C(=O)N(C)C)CC(=O)N(C)[C@@H](CC(C)C)C(=O)N[C@@H]([C@@H](C)CC)C(=O)N(C)CC(=O)N(C)[C@H]3C/C=C\CCN(C3=O)[C@@H](Cc3ccc(C)cc3)C(=O)N(C)CC(=O)N[C@@H](CCc3ccc(Cl)c(Cl)c3)C(=O)N2C1 [PP2185] | A (a compound having 10 or more and less than 20 is denoted as A) | AA (a compound having 20 or more is denoted as AA) | – | – | – | –
7 | 148 | CCO[C@@H]1C[C@H]2C(=O)NC3(CC(C)(C)C3)C(=O)N(C)[C@@H](CC3CCC3)C(=O)N(C)[C@H](C(=O)N(C)C)CC(=O)N(C)[C@@H](COC)C(=O)N[C@@H]([C@@H](C)CC)C(=O)N(C3CC3)CC(=O)N(C)[C@H]3C/C=C\CCN(C3=O)[C@@H](Cc3ccc(C(F)(F)F)cc3)C(=O)N(C)CC(=O)N[C@@H](CCc3ccc(C(F)(F)F)c(OC)c3)C(=O)N2C1 [PP2771] | – | – | A (a compound having 10 or more and less than 20 is denoted as A) | AA (a compound having 20 or more is denoted as AA) | – | –
8 | 1.2 | CCO[C@@H]1C[C@H]2C(=O)NC3(CC(C)(C)C3)C(=O)N(C)[C@@H](C3CCCC3)C(=O)N(C)[C@H](C(=O)N(C)C)CC(=O)N(C)[C@@H](CC(C)C)C(=O)N[C@@H]([C@@H](C)CC)C(=O)N(C)CC(=O)N(C)[C@H]3C/C=C\CCN(C3=O)[C@@H](Cc3ccc(C(F)(F)F)cc3)C(=O)N(C)CC(=O)N[C@@H](CCc3cc(F)c(C(F)(F)F)c(F)c3)C(=O)N2C1 [PP1650] | – | – | – | – | A (a compound having 10 or more and less than 20 is denoted as A) | A (a compound having 10 or more and less than 20 is denoted as A)

Reference: patent EP4603105A1, “PHARMACEUTICAL COMPOSITION CONTAINING CYCLIC COMPOUND HAVING SELECTIVE KRAS INHIBITORY EFFECT AGAINST HRAS AND NRAS” (CHUGAI SEIYAKU KABUSHIKI KAISHA, priority 2022, dated 2024)
